Measurements as given in the supplement of paper PMC10307832.

What was measured:
Assay in all cases: relative viability (nuclei count vs DMSO), 5 days (fraction); higher = more cells survive
[1] = system: A-427
Outline: (§1)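 One day after seeding in 1536-well plates, lung cancer cell lines were dosed by pin tool. Dosing was either single-drug or a fixed anchor-drug dose plus five library-drug doses (not always all listed) in √10 steps. After 5 days, nuclei were stained in one fix-and-stain step and counted on 4× images, and relative viability is the nuclei count of treated wells over that of vehicle wells, given as the median of duplicate plates.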

[2] = system: EKVX
Outline: as §1

[3] = system: H3255
Outline: as §1

[4] = system: LK-2
Outline: as §1

[5] = system: NCI-H1355
Outline: as §1

[6] = system: NCI-H1666
Outline: as §1

[7] = system: NCI-H1755
Outline: as §1

[8] = system: NCI-H1944
Outline: as §1

[9] = system: NCI-H2085
Outline: as §1

[10] = system: NCI-H2228
Outline: as §1

[11] = system: NCI-H2347
Outline: as §1

[12] = system: NCI-H3122
Outline: as §1

[13] = system: NCI-H322M
Outline: as §1

[14] = system: NCI-H358
Outline: as §1

[15] = system: NCI-H441
Outline: as §1

[16] = system: NCI-H460
Outline: as §1

[17] = system: NCI-H520
Outline: as §1

[18] = system: NCI-H596
Outline: as §1

[19] = system: NCI-H650
Outline: as §1

[20] = system: NCI-H838
Outline: as §1

[21] = system: SW 1573
Outline: as §1

Cc1cnc(-c2cnc(NCCNc3ccc(C#N)cn3)nc2-c2ccc(Cl)cc2Cl)[nH]1 + C[C@]1(O)C[C@@H](c2nc(-c3ccc4ccc(-c5ccccc5)nc4c3)c3c(N)nccn32)C1 [Linsitinib] (partner 1 µM)
relative viability ([1]; first compound 0.08 µM): 1.09
relative viability ([1]; first compound 0.253 µM): 1.12
relative viability ([1]; first compound 0.8 µM): 1.11
relative viability ([1]; first compound 2.53 µM): 1.15
relative viability ([2]; first compound 0.08 µM): 1.07
relative viability ([2]; first compound 0.253 µM): 0.794
relative viability ([2]; first compound 0.8 µM): 0.934
relative viability ([2]; first compound 2.53 µM): 0.926
relative viability ([3]; first compound 0.08 µM): 1.15
relative viability ([3]; first compound 0.253 µM): 0.884
relative viability ([3]; first compound 0.8 µM): 0.928
relative viability ([3]; first compound 2.53 µM): 0.944
relative viability ([4]; first compound 0.08 µM): 0.62
relative viability ([4]; first compound 0.253 µM): 0.476
relative viability ([4]; first compound 0.8 µM): 0.489
relative viability ([4]; first compound 2.53 µM): 0.789
relative viability ([5]; first compound 0.08 µM): 0.88
relative viability ([5]; first compound 0.253 µM): 0.841
relative viability ([5]; first compound 0.8 µM): 0.765
relative viability ([5]; first compound 2.53 µM): 0.732
relative viability ([6]; first compound 0.08 µM): 0.926
relative viability ([6]; first compound 0.253 µM): 0.868
relative viability ([6]; first compound 0.8 µM): 0.921
relative viability ([6]; first compound 2.53 µM): 0.976
relative viability ([7]; first compound 0.08 µM): 1.03
relative viability ([7]; first compound 0.253 µM): 0.856
relative viability ([7]; first compound 0.8 µM): 0.958
relative viability ([7]; first compound 2.53 µM): 0.991
relative viability ([8]; first compound 0.08 µM): 1.36
relative viability ([8]; first compound 0.8 µM): 1.23
relative viability ([8]; first compound 2.53 µM): 1.21
relative viability ([9]; first compound 0.08 µM): 0.986
relative viability ([9]; first compound 0.253 µM): 0.932
relative viability ([9]; first compound 0.8 µM): 0.919
relative viability ([9]; first compound 2.53 µM): 0.882
relative viability ([10]; first compound 0.08 µM): 0.678
relative viability ([10]; first compound 0.253 µM): 0.637
relative viability ([10]; first compound 0.8 µM): 0.597
relative viability ([10]; first compound 2.53 µM): 0.481
relative viability ([11]; first compound 0.08 µM): 1.08
relative viability ([11]; first compound 0.253 µM): 0.72
relative viability ([11]; first compound 0.8 µM): 1
relative viability ([11]; first compound 2.53 µM): 1.02
relative viability ([12]; first compound 0.08 µM): 1.04
relative viability ([12]; first compound 0.253 µM): 0.949
relative viability ([12]; first compound 0.8 µM): 1.04
relative viability ([12]; first compound 2.53 µM): 0.997
relative viability ([13]; first compound 0.08 µM): 0.99
relative viability ([13]; first compound 0.253 µM): 0.853
relative viability ([13]; first compound 0.8 µM): 0.874
relative viability ([13]; first compound 2.53 µM): 0.947
relative viability ([14]; first compound 0.08 µM): 0.833
relative viability ([14]; first compound 0.253 µM): 0.561
relative viability ([14]; first compound 0.8 µM): 0.696
relative viability ([14]; first compound 2.53 µM): 0.618
relative viability ([15]; first compound 0.08 µM): 0.662
relative viability ([15]; first compound 0.253 µM): 0.445
relative viability ([15]; first compound 0.8 µM): 0.606
relative viability ([15]; first compound 2.53 µM): 0.519
relative viability ([16]; first compound 0.08 µM): 0.918
relative viability ([16]; first compound 0.253 µM): 0.623
relative viability ([16]; first compound 0.8 µM): 0.974
relative viability ([16]; first compound 2.53 µM): 0.782
relative viability ([17]; first compound 0.08 µM): 0.974
relative viability ([17]; first compound 0.253 µM): 0.985
relative viability ([17]; first compound 0.8 µM): 0.965
relative viability ([17]; first compound 2.53 µM): 1.09
relative viability ([18]; first compound 0.08 µM): 1.02
relative viability ([18]; first compound 0.253 µM): 1.11
relative viability ([18]; first compound 0.8 µM): 1.06
relative viability ([18]; first compound 2.53 µM): 1.07
relative viability ([19]; first compound 0.08 µM): 1.02
relative viability ([19]; first compound 0.253 µM): 0.769
relative viability ([19]; first compound 0.8 µM): 0.93
relative viability ([19]; first compound 2.53 µM): 0.712
relative viability ([20]; first compound 0.08 µM): 1.02
relative viability ([20]; first compound 0.253 µM): 1.02
relative viability ([20]; first compound 0.8 µM): 1.25
relative viability ([20]; first compound 2.53 µM): 1.51
relative viability ([21]; first compound 0.08 µM): 0.945
relative viability ([21]; first compound 0.253 µM): 0.744
relative viability ([21]; first compound 0.8 µM): 0.845
relative viability ([21]; first compound 2.53 µM): 0.695

Cc1cnc(-c2cnc(NCCNc3ccc(C#N)cn3)nc2-c2ccc(Cl)cc2Cl)[nH]1 + Cc1nc(NC(=O)N2CCC[C@H]2C(N)=O)sc1-c1ccnc(C(C)(C)C(F)(F)F)c1 [Alpelisib] (partner 2 µM)
relative viability ([1]; first compound 0.08 µM): 1.1
relative viability ([1]; first compound 0.253 µM): 1.05
relative viability ([1]; first compound 0.8 µM): 1.07
relative viability ([1]; first compound 2.53 µM): 1.06
relative viability ([2]; first compound 0.08 µM): 1.04
relative viability ([2]; first compound 0.253 µM): 0.739
relative viability ([2]; first compound 0.8 µM): 0.839
relative viability ([2]; first compound 2.53 µM): 0.766
relative viability ([3]; first compound 0.08 µM): 0.886
relative viability ([3]; first compound 0.253 µM): 0.618
relative viability ([3]; first compound 0.8 µM): 0.802
relative viability ([3]; first compound 2.53 µM): 0.73
relative viability ([4]; first compound 0.08 µM): 1.21
relative viability ([4]; first compound 0.253 µM): 1.05
relative viability ([4]; first compound 0.8 µM): 1.13
relative viability ([4]; first compound 2.53 µM): 1.3
relative viability ([5]; first compound 0.08 µM): 0.801
relative viability ([5]; first compound 0.253 µM): 0.752
relative viability ([5]; first compound 0.8 µM): 0.786
relative viability ([5]; first compound 2.53 µM): 0.783
relative viability ([6]; first compound 0.08 µM): 1
relative viability ([6]; first compound 0.253 µM): 0.919
relative viability ([6]; first compound 0.8 µM): 0.831
relative viability ([6]; first compound 2.53 µM): 1.07
relative viability ([7]; first compound 0.08 µM): 0.998
relative viability ([7]; first compound 0.253 µM): 0.851
relative viability ([7]; first compound 0.8 µM): 0.901
relative viability ([7]; first compound 2.53 µM): 0.896
relative viability ([8]; first compound 0.08 µM): 0.827
relative viability ([8]; first compound 0.8 µM): 0.84
relative viability ([8]; first compound 2.53 µM): 0.824
relative viability ([9]; first compound 0.08 µM): 1.13
relative viability ([9]; first compound 0.253 µM): 1.03
relative viability ([9]; first compound 0.8 µM): 0.94
relative viability ([9]; first compound 2.53 µM): 0.961
relative viability ([10]; first compound 0.08 µM): 0.931
relative viability ([10]; first compound 0.253 µM): 0.7
relative viability ([10]; first compound 0.8 µM): 0.987
relative viability ([10]; first compound 2.53 µM): 0.717
relative viability ([11]; first compound 0.08 µM): 1.08
relative viability ([11]; first compound 0.253 µM): 0.812
relative viability ([11]; first compound 0.8 µM): 1.15
relative viability ([11]; first compound 2.53 µM): 1.01
relative viability ([12]; first compound 0.08 µM): 0.858
relative viability ([12]; first compound 0.253 µM): 0.771
relative viability ([12]; first compound 0.8 µM): 0.725
relative viability ([12]; first compound 2.53 µM): 0.762
relative viability ([13]; first compound 0.08 µM): 0.773
relative viability ([13]; first compound 0.253 µM): 0.754
relative viability ([13]; first compound 0.8 µM): 0.709
relative viability ([13]; first compound 2.53 µM): 0.733
relative viability ([14]; first compound 0.08 µM): 0.955
relative viability ([14]; first compound 0.253 µM): 0.714
relative viability ([14]; first compound 0.8 µM): 0.843
relative viability ([14]; first compound 2.53 µM): 0.729
relative viability ([15]; first compound 0.08 µM): 0.759
relative viability ([15]; first compound 0.253 µM): 0.668
relative viability ([15]; first compound 0.8 µM): 0.858
relative viability ([15]; first compound 2.53 µM): 0.7
relative viability ([16]; first compound 0.08 µM): 0.552
relative viability ([16]; first compound 0.253 µM): 0.475
relative viability ([16]; first compound 0.8 µM): 0.61
relative viability ([16]; first compound 2.53 µM): 0.68
relative viability ([17]; first compound 0.08 µM): 0.926
relative viability ([17]; first compound 0.253 µM): 0.791
relative viability ([17]; first compound 0.8 µM): 1.11
relative viability ([17]; first compound 2.53 µM): 1.04
relative viability ([18]; first compound 0.08 µM): 0.532
relative viability ([18]; first compound 0.253 µM): 0.375
relative viability ([18]; first compound 0.8 µM): 0.517
relative viability ([18]; first compound 2.53 µM): 0.469
relative viability ([19]; first compound 0.08 µM): 1.07
relative viability ([19]; first compound 0.253 µM): 1.06
relative viability ([19]; first compound 0.8 µM): 1.17
relative viability ([19]; first compound 2.53 µM): 1.11
relative viability ([20]; first compound 0.08 µM): 1.06
relative viability ([20]; first compound 0.253 µM): 0.951
relative viability ([20]; first compound 0.8 µM): 1.18
relative viability ([20]; first compound 2.53 µM): 1.41
relative viability ([21]; first compound 0.08 µM): 0.822
relative viability ([21]; first compound 0.253 µM): 0.765
relative viability ([21]; first compound 0.8 µM): 0.748
relative viability ([21]; first compound 2.53 µM): 0.515
